Tests used:
Assay type in all cases: cell-based
[1] = system: IL-4 stimulated CD23 upregulation in human Ramos B cells (JAK-1/JAK-3, Stat-6); assay: Assay for Ramos B-Cell Line Stimulated with IL-4 (CD23 upregulation, FACS); details: Table III Example 3
In short: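 Log-phase Ramos B cells (5×10^4 per point, RPMI with 5% serum) pre-incubated with compound or DMSO 1 h at 37° C, then stimulated with IL-4 at 50 units/mL final for 20-24 h. CD23 upregulation measured by staining and flow cytometry.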

[2] = system: IFNγ induced ICAM-1 (CD54) up-regulation in U937 human monocytic cells (JAK/Stat pathway); assay: U937 IFNγ ICAM1 FACS Assay; details: Table III Example 6, 10 ng/mL IFNγ, 18-24 hours
In short: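 U937 cells (100,000 per well) were pre-incubated 30 min at 37 °C with serially 3-fold diluted compound, then stimulated with IFNγ for 18–24 h. Surface ICAM-1 was measured by flow cytometry as the geometric mean of ICAM-APC on gated live cells. EC50 values were calculated from dose curves, with % live cells also recorded.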

[3] = system: primary human T-cells (IL-2 induced proliferation, JAK-1/JAK-3, Stat-5); assay: Primary Human T-Cell Proliferation Assay Stimulated with IL-2 (CellTiter-Glo); details: Table III Example 4
In short: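 Pre-activated peripheral-blood T-cells (TCR/CD28 stimulated, IL-2-maintained) were IL-2-depleted, then plated in Yssel's medium with 80 U/mL IL-2 in the cell suspension and compound in duplicate. Proliferation ran 72 h at 37 °C; viable cells quantified by CellTiter-Glo ATP luminescence, with IL-2-omitted wells as unstimulated control.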

C#CCNS(=O)(=O)Cc1ccc(Nc2nc(Nc3cccc(S(N)(=O)=O)c3)ncc2F)cc1 [Compound I-4, N2-(3-Aminosulfonylphenyl)-5-fluoro-N4-[4-(prop-2-ynylaminosulfonylmethyl)phenyl]-2,4-pyrimidinediamine]
IC50 ([1]; Homo sapiens, Ramos): 141 nM | IC50 ([2]; Homo sapiens, U-937): 908 nM | IC50 ([3]; Homo sapiens, T-cell): 109 nM

C#CCNS(=O)(=O)Cc1ccc(Nc2nc(Nc3ccc(C)c(S(N)(=O)=O)c3)ncc2F)cc1 [Compound I-5, N2-(3-Aminosulfonyl-4-methylphenyl)-5-fluoro-N4-[4-(prop-2-ynylaminosulfonylmethyl)phenyl]-2,4-pyrimidinediamine]
IC50 ([1]; Homo sapiens, Ramos): 130 nM | IC50 ([2]; Homo sapiens, U-937): 710 nM | IC50 ([3]; Homo sapiens, T-cell): 120 nM

CCS(=O)(=O)NCc1ccc(Nc2nc(Nc3ccc(C)c(S(N)(=O)=O)c3)ncc2F)cc1 [Compound I-10, N2-(3-aminosulfonyl-4-methyl)phenyl-N4-(4-ethylsulfonylaminomethyl)phenyl-5-fluoro-2,4-pyrimidinediamine]
IC50 [1]: 94 nM | IC50 [2]: 477 nM | IC50 [3]: 60.6 nM

CCS(=O)(=O)NCc1cccc(Nc2nc(Nc3cccc(S(N)(=O)=O)c3)ncc2F)c1 [Compound I-12, N2-(3-aminosulfonyl)phenyl-N4-(3-ethylsulfonylaminomethyl)phenyl-5-fluoro-2,4-pyrimidinediamine]
IC50 [1]: 170 nM | IC50 [2]: 1580 nM | IC50 [3]: 158 nM

CCS(=O)(=O)NCc1cccc(Nc2nc(Nc3ccc(C)c(S(N)(=O)=O)c3)ncc2F)c1 [Compound I-13, N2-(3-aminosulfonyl-4-methyl)phenyl-N4-(3-ethylsulfonylaminomethyl)phenyl-5-fluoro-2,4-pyrimidinediamine]
IC50 [1]: 136 nM | IC50 [2]: 536 nM | IC50 [3]: 197 nM

CCS(=O)(=O)NCCc1ccc(Nc2nc(Nc3ccc(C)c(S(N)(=O)=O)c3)ncc2F)cc1 [Compound I-16, N2-(3-aminosulfonyl-4-methyl)phenyl-N4-[4-(2-ethylsulfonylamino)ethyl]phenyl-5-fluoro-2,4-pyrimidinediamine]
IC50 [1]: 148 nM | IC50 [2]: 2280 nM | IC50 [3]: 536 nM

CCS(=O)(=O)NCc1ccc(Nc2nc(Nc3cccc(S(N)(=O)=O)c3)ncc2C)cc1 [Compound I-21, N2-(3-aminosulfonyl)phenyl-N4-(4-ethylsulfonylaminomethyl)phenyl-5-methyl-2,4-pyrimidinediamine]
IC50 [1]: 81.2 nM | IC50 [2]: 362 nM | IC50 [3]: 58.9 nM

CCS(=O)(=O)N[C@@H](C)c1ccc(Nc2nc(Nc3cccc(S(N)(=O)=O)c3)ncc2F)cc1 [Compound I-27, N2-(3-aminosulfonyl)phenyl-N4-[4-(1S-ethylsulfonylamino)ethyl]phenyl-5-fluoro-2,4-pyrimidinediamine]
IC50 [1]: 118 nM | IC50 [2]: 1240 nM | IC50 [3]: 144 nM

CCS(=O)(=O)N[C@H](C)c1ccc(Nc2nc(Nc3cccc(S(N)(=O)=O)c3)ncc2F)cc1 [Compound I-30, N2-(3-aminosulfonyl)phenyl-N4-[4-(1R-ethylsulfonylamino)ethyl]phenyl-5-fluoro-2,4-pyrimidinediamine]
IC50 [1]: 74.3 nM | IC50 [2]: 1160 nM | IC50 [3]: 153 nM

Cc1ccc(Nc2ncc(F)c(Nc3cccc(CNS(=O)(=O)C4CC4)c3)n2)cc1S(N)(=O)=O [Compound I-34, N2-(3-aminosulfonyl-4-methyl)phenyl-N4-(3-cyclopropylsulfonylaminomethyl)phenyl-5-fluoro-2,4-pyrimidinediamine]
IC50 [1]: 184 nM | IC50 [2]: 1190 nM | IC50 [3]: 484 nM

Cc1ccc(Nc2ncc(F)c(Nc3ccc(CNS(=O)(=O)c4cccs4)cc3)n2)cc1S(N)(=O)=O [Compound I-37, N2-(3-aminosulfonyl-4-methyl)phenyl-5-fluoro-N4-[4-(thiophen-2-yl)sulfonylaminomethyl]phenyl-2,4-pyrimidinediamine]
IC50 [1]: 46.2 nM | IC50 [2]: 375 nM | IC50 [3]: 152 nM

CCS(=O)(=O)NCCc1ccc(Nc2nc(Nc3cccc(S(N)(=O)=O)c3)ncc2C)cc1 [Compound I-39, N2-(3-aminosulfonyl)phenyl-N4-[4-(2-ethylsulfonylamino)ethyl]phenyl-5-methyl-2,4-pyrimidinediamine]
IC50 [1]: 46.2 nM | IC50 [2]: 604 nM | IC50 [3]: 58 nM

CCS(=O)(=O)NCCc1ccc(Nc2nc(Nc3ccc(C)c(S(N)(=O)=O)c3)ncc2C)cc1 [Compound I-40, N2-(3-aminosulfonyl-4-methyl)phenyl-N4-[4-(2-ethylsulfonylamino)ethyl]phenyl-5-methyl-2,4-pyrimidinediamine]
IC50 [1]: 68.1 nM | IC50 [2]: 341 nM | IC50 [3]: 92.4 nM

Cc1ccc(Nc2ncc(C)c(Nc3ccc(CNS(=O)(=O)C4CC4)cc3)n2)cc1S(N)(=O)=O [Compound I-47, N2-(3-aminosulfonyl-4-methyl)phenyl-N4-(4-cyclopropylsulfonylaminomethyl)phenyl-5-methyl-2,4-pyrimidinediamine]
IC50 [1]: 28 nM | IC50 [2]: 104 nM | IC50 [3]: 36.2 nM

NS(=O)(=O)c1ccc(Nc2ncc(F)c(Nc3ccc(CNS(=O)(=O)CC(F)(F)F)cc3)n2)cc1 [Compound I-48, N2-(4-aminosulfonyl)phenyl-5-fluoro-N4-(4-trifluoroethylsulfonylaminomethyl)phenyl-2,4-pyrimidinediamine]
IC50 [1]: 263 nM | IC50 [2]: 3760 nM | IC50 [3]: 758 nM

NS(=O)(=O)c1cccc(Nc2ncc(F)c(Nc3ccc(CNS(=O)(=O)CC(F)(F)F)cc3)n2)c1 [Compound I-49, N2-(3-aminosulfonyl)phenyl-5-fluoro-N4-(4-trifluoroethylsulfonylaminomethyl)phenyl-2,4-pyrimidinediamine]
IC50 [1]: 46.8 nM | IC50 [2]: 836 nM | IC50 [3]: 38.3 nM

Cc1ccc(Nc2ncc(F)c(Nc3ccc(CNS(=O)(=O)CC(F)(F)F)cc3)n2)cc1S(N)(=O)=O [Compound I-50, N2-(3-aminosulfonyl-4-methyl)phenyl-5-fluoro-N4-(4-trifluoroethylsulfonylaminomethyl)phenyl-2,4-pyrimidinediamine]
IC50 [1]: 34.3 nM | IC50 [2]: 548 nM | IC50 [3]: 62.7 nM

Cc1cnc(Nc2cccc(S(N)(=O)=O)c2)nc1Nc1cccc(CNS(=O)(=O)C2CC2)c1 [Compound I-51, N2-(3-aminosulfonyl)phenyl-N4-(3-cyclopropylsulfonylaminomethyl)phenyl-5-methyl-2,4-pyrimidinediamine]
IC50 [1]: 62.2 nM | IC50 [2]: 324 nM | IC50 [3]: 29.7 nM

Cc1ccc(Nc2ncc(C)c(Nc3cccc(CNS(=O)(=O)C4CC4)c3)n2)cc1S(N)(=O)=O [Compound I-52, N2-(3-aminosulfonyl-4-methyl)phenyl-N4-(3-cyclopropylsulfonylaminomethyl)phenyl-5-methyl-2,4-pyrimidinediamine]
IC50 [1]: 68.5 nM | IC50 [2]: 203 nM | IC50 [3]: 66.2 nM

Cc1cnc(Nc2cccc(S(N)(=O)=O)c2)nc1Nc1ccc(CCNS(=O)(=O)C2CC2)cc1 [Compound I-54, N2-(3-aminosulfonyl)phenyl-N4-[4-(2-cyclopropylsulfonylamino)ethyl]phenyl-5-methyl-2,4-pyrimidinediamine]
IC50 [1]: 94.3 nM | IC50 [2]: 389 nM | IC50 [3]: 47 nM

Cc1ccc(Nc2ncc(C)c(Nc3ccc(CCNS(=O)(=O)C4CC4)cc3)n2)cc1S(N)(=O)=O [Compound I-55, N2-(3-aminosulfonyl-4-methyl)phenyl-N4-[4-(2-cyclopropylsulfonylamino)ethyl]phenyl-5-methyl-2,4-pyrimidinediamine]
IC50 [1]: 78.8 nM | IC50 [2]: 360 nM | IC50 [3]: 84.5 nM

Cc1ccc(Nc2ncc(F)c(Nc3ccc(CNS(=O)(=O)C(C)C)cc3)n2)cc1S(N)(=O)=O [Compound I-67, N2-(3-aminosulfonyl-4-methyl)phenyl-5-fluoro-N4-(4-isopropylsulfonylaminomethyl)phenyl-2,4-pyrimidinediamine]
IC50 [1]: 82.4 nM | IC50 [2]: 321 nM | IC50 [3]: 84.5 nM

NS(=O)(=O)c1ccc(Nc2ncc(F)c(Nc3ccc(CNS(=O)(=O)C4CCCC4)cc3)n2)cc1 [Compound I-68, N2-(4-aminosulfonyl)phenyl-N4-(4-cyclopentylsulfonylaminomethyl)phenyl-5-fluoro-2,4-pyrimidinediamine]
IC50 [1]: 94 nM | IC50 [2]: 289 nM | IC50 [3]: 102 nM

NS(=O)(=O)c1cccc(Nc2ncc(F)c(Nc3ccc(CNS(=O)(=O)C4CCCC4)cc3)n2)c1 [Compound I-69, N2-(3-aminosulfonyl)phenyl-N4-(4-cyclopentylsulfonylaminomethyl)phenyl-5-fluoro-2,4-pyrimidinediamine]
IC50 [1]: 51.5 nM | IC50 [2]: 176 nM | IC50 [3]: 50 nM

Cc1ccc(Nc2ncc(F)c(Nc3ccc(CNS(=O)(=O)C4CCCC4)cc3)n2)cc1S(N)(=O)=O [Compound I-70, N2-(3-aminosulfonyl-4-methyl)phenyl-N4-(4-cyclopentylsulfonylaminomethyl)phenyl-5-fluoro-2,4-pyrimidinediamine]
IC50 [1]: 43 nM | IC50 [2]: 159 nM | IC50 [3]: 150 nM

NS(=O)(=O)c1ccc(Nc2ncc(F)c(Nc3ccc(CNS(=O)(=O)C4CCCCC4)cc3)n2)cc1 [Compound I-71, N2-(4-aminosulfonyl)phenyl-N4-(4-cyclohexylsulfonylaminomethyl)phenyl-5-fluoro-2,4-pyrimidinediamine]
IC50 [1]: 120 nM | IC50 [2]: 401 nM | IC50 [3]: 132 nM

— US9481654B2, “Compositions and methods for inhibition of the JAK pathway” (Rigel Pharmaceuticals, Inc., priority 2006, dated 2016)
